Columns and labels:
[1] = molecular target: recombinant BACE1 protein (Homo sapiens, UniProt P56817); test: Biochemical FRET based assay; details: recombinant BACE1 1 μg/ml, 120 minutes at room temperature, pH 5.0; for IC50: read-out: Biochemical FRET based assay pIC50 (converted)
How it was run: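 Proteolysis was read as the rise in donor fluorescence (320 nm excitation, 405 nm emission) from T0 to T120, expressed in RFU. The reaction ran 120 minutes at room temperature at pH 5.0 in citrate buffer with 4% DMSO, using […] quenched Swedish APP peptide and 1 μg/ml BACE1.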

[2] = tested on: Abeta total; test: Cellular αLisa assay in SKNBE2 cells, Abeta total; type: cell-based, human; details: incubated for 18 hours; for IC50: Homo sapiens, SKNBE2, 18 h, read-out: Cellular αLisa assay in SKNBE2 cells Abetatotal pIC50 (converted)
How it was run: (§1)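 Secreted Abeta levels were measured by sandwich αLisa, pairing biotin-AbN/25 donor beads with Ab4G8 acceptor beads for total Abeta or cAb42/26 for Abeta 1-42, read at 615 nm after 650 nm excitation following 1 hour. Cells were SKNBE2 expressing wild-type hAPP695, exposed to compound for 18 hours.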

[3] = tested on: Abeta 1-42; test: Cellular αLisa assay in SKNBE2 cells, Abeta 1-42; type: cell-based, human; details: incubated for 18 hours; for IC50: Homo sapiens, SKNBE2, 18 h, read-out: Cellular αLisa assay in SKNBE2 cells Abeta 42 pIC50 (converted)
How it was run: as §1

Chain of recombinant BACE1 protein (P56817 46-501): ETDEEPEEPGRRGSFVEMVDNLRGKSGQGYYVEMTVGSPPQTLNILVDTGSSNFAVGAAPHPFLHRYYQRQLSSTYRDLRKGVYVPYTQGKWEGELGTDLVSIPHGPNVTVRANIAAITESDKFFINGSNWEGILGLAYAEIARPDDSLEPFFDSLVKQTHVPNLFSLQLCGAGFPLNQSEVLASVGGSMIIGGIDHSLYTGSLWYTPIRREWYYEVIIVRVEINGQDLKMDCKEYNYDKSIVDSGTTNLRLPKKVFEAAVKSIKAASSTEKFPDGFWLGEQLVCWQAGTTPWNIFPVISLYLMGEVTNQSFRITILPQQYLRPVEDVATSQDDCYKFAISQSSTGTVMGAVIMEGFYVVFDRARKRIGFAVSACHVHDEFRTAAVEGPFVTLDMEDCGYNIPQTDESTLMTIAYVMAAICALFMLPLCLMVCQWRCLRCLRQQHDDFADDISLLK

Compound	IC50 [1] [µM]	IC50 [2] [µM]	IC50 [3] [µM]	Biochemical FRET based assay pIC50 [1]	Cellular αLisa assay in SKNBE2 cells Abetatotal pIC50 [2]	Cellular αLisa assay in SKNBE2 cells Abeta 42 pIC50 [3]
N#Cc1cncc(-c2ccc(F)c([C@@]3(C4CC4)N=C(N)CO[C@@]3(F)C(F)(F)F)c2)c1 [Compound 271]	> 30.2	> 10	> 10			
CC1(c2cc(NC(=O)c3ccc(Cl)cn3)c(F)cc2F)COCC(N)=N1 (racemic) [Compound 60]				5.65	6.92	6.89
CC1(c2cc(NC(=O)c3ccc(Cl)cc3F)ccc2F)COCC(N)=N1.Cl (stereo not drawn) [Compound 27]				6.35	7.04	7.06
CC1(c2cc(-c3cccc(OC(F)(F)F)c3)c(F)cc2F)COCC(N)=N1.Cl (stereo not drawn) [Compound 36]				5.13	6.09	5.98
CC1(c2cc(-c3cncnc3)c(F)cc2F)N=C(N)COC1F (single isomer, unassigned) [Compound 81]	8.91	1.2	1.23			
CC#Cc1cncc(-c2ccc(F)c([C@@]3(C4CC4)N=C(N)CO[C@H]3F)c2)c1 [Compound 293]	1.38	1.55	1.86			
NC1=N[C@@](c2cccc(-c3cncc(F)c3)c2)(C2CC2)[C@H](C(F)(F)F)OC1 [Compound 270]	0.132	0.0479	0.0468			
COc1cncc(-c2cccc(C3(C)N=C(N)COC3F)c2)c1 (single isomer, unassigned) [Compound 88]	> 30.2				5.65	5.66
C[C@@]1(c2cccc(NC(=O)c3ccc(Cl)cn3)c2)COC2(CC2)C(N)=N1 [Compound 73]	0.102	0.00427	0.0049			
CC1(c2cccc(NC(=O)c3ccc(C#N)cn3)c2)COCC(N)=N1 (single isomer, unassigned) [Compound 49]				4.6	5.66	5.68
C[C@@]1(c2cc(-c3cc(F)cc(F)c3)c(F)cc2F)COCC(N)=N1 [Compound 37]				5.45	6.79	6.77
C[C@H]1OC[C@](C)(c2cccc(NC(=O)c3ccc(Cl)cn3)c2)N=C1N (racemic) [Compound 20, trans-rac-N-[3-(5-Amino-3,6-dimethyl-3,6-dihydro-2H-1,4-oxazin-3-yl)phenyl]-5-chloropyridine-2-carboxamide]				6.78	7.86	7.81
Cc1cc(Br)cnc1C(=O)Nc1cccc([C@@]2(C3CC3)N=C(N)CO[C@H]2F)c1 [Compound 272]	0.0912	0.0355	0.0363			
COc1cnc(C(=O)Nc2cccc(C3(C)N=C(N)COC3(F)C(F)(F)F)c2)cn1 (single isomer, unassigned) [Compound 177]	0.0251				7.84	7.83
N#Cc1cnc(C(=O)Nc2cccc([C@@]3(C4CC4)N=C(N)CO[C@H]3F)c2)c(Cl)c1 [Compound 309]	0.219	0.0724	0.0741			
COc1cncc(-c2cccc(C3(C)N=C(N)COC3(F)C(F)(F)F)c2)c1 (single isomer, unassigned) [Compound 142]	> 30.2				<5	<5
C[C@@]1(c2cc(-c3cc(Cl)cc(Cl)c3)c(F)cc2F)COCC(N)=N1 [Compound 48]				5.73	6.22	6.19
CC1(c2cc(-c3cccc(C(F)(F)F)c3)c(F)cc2F)COCC(N)=N1 (stereo not drawn) [Compound 31]				4.76	5.86	5.76
COc1cncc(-c2ccc(F)c(C3(C)COCC(N)=N3)c2)c1 (single isomer, unassigned) [Compound 56]				5.69	7.1	7.02
COc1cnc(C(=O)Nc2cccc([C@@]3(C4CC4)N=C(N)CO[C@@]3(F)C(F)(F)F)c2)cn1 [Compound 203]	0.0204	0.0372	0.0372			
CCC1(c2cc(-c3cncc(C#N)c3)ccc2F)N=C(N)COC1C(F)(F)F (stereo not drawn) [Compound 310]	3.31	0.617	0.776			
NC1=N[C@@](c2cccc(-c3cncnc3)c2)(C2CC2)[C@@H](C(F)(F)F)OC1 [Compound 286]	0.851	0.155	0.158			

Continued, values first:

IC50 [1] [µM]	IC50 [2] [µM]	IC50 [3] [µM]	Biochemical FRET based assay pIC50 [1]	Cellular αLisa assay in SKNBE2 cells Abetatotal pIC50 [2]	Cellular αLisa assay in SKNBE2 cells Abeta 42 pIC50 [3]	Compound
			5.77	5.31	5.17	CC1(c2cccc(NC(=O)c3ccc(Cl)cn3)c2)COC(F)(C(F)(F)F)C(N)=N1 (single isomer, unassigned) [Compound 70]
> 30.2				<5	5.15	CC1(c2cc(-c3cncnc3)ccc2F)N=C(N)COC1C(F)(F)F (single isomer, unassigned) [Compound 267]
0.0355	0.00661	0.00631				N#Cc1ccc(C(=O)Nc2cccc([C@@]3(C4CC4)N=C(N)CO[C@H]3C(F)(F)F)c2)nc1 [Compound 225, (2R,3R)—N-{3-[5-amino-3-cyclopropyl-2-(trifluoromethyl)-3,6-dihydro-2H-1,4-oxazin-3-yl]phenyl}-5-cyanopyridine-2-carboxamide]
0.0302	0.0741	0.0692				N#Cc1ccc(C(=O)Nc2ccc(F)c([C@@]3(C4CC4)N=C(N)CO[C@@]3(F)C(F)(F)F)c2)nc1 [Compound 262]
0.0977	0.0178	0.0186				N#Cc1cnc(C(=O)Nc2cccc([C@@]3(C4CC4)N=C(N)CO[C@@H]3C(F)(F)F)c2)c(Cl)c1 [Compound 290]
			<4.52	5.04	5.19	CC1(c2cccc(NC(=O)c3ccc(Cl)cn3)c2)N=C(N)COC1F (single isomer, unassigned) [Compound 122]
0.0851	0.126	0.135				NC1=N[C@@](c2cc(NC(=O)c3ncc(Cl)cc3Cl)ccc2F)(C2CC2)[C@@H](F)OC1 [Compound 259]
0.468	0.347	0.355				NC1=N[C@@](c2cc(NC(=O)c3ncc(Cl)cc3F)ccc2F)(C2CC2)[C@H](F)OC1 [Compound 220]
0.0871	0.0174	0.0178				CCC1(c2cc(NC(=O)c3ncc(C#N)cc3Cl)ccc2F)N=C(N)COC1C(F)(F)F (stereo not drawn) [Compound 284]
0.263	0.12	0.12				NC1=N[C@@](c2cccc(NC(=O)c3cnc(OCC(F)(F)F)cn3)c2)(C2CC2)[C@H](F)OC1 [Compound 274]
> 30.2				<5	<5	CC1(c2cc(-c3cncnc3)ccc2F)N=C(N)COC1F (single isomer, unassigned) [Compound 127]
0.0251	0.0102	0.0115				NC1=N[C@@](c2cc(NC(=O)c3ncc(Cl)cc3Cl)ccc2F)(C2CC2)[C@H](C(F)(F)F)OC1 [Compound 234]
> 30.2				<5	<5	COc1cncc(-c2cccc(C3(C)N=C(N)COC3C(F)(F)F)c2)c1 (single isomer, unassigned) [Compound 102]
			6.26	7.03	7.07	CC1(c2cccc(NC(=O)c3cnc(C(F)(F)F)cn3)c2)COCC(N)=N1 (stereo not drawn) [Compound 146]
0.832	0.0741	0.0794				C[C@]1(c2cc(NC(=O)c3ccncn3)ccc2F)N=C(N)CO[C@H]1C(F)(F)F [Compound 168]
> 30.2				<5	<5	CC1(c2cccc(NC(=O)c3ncc(Cl)cc3F)c2)N=C(N)COC1F (single isomer, unassigned) [Compound 164]
1.05	0.224	0.224				CC1(c2cc(-c3cncc(C#N)c3)ccc2F)N=C(N)COC1C(F)(F)F (stereo not drawn) [Compound 239]
0.0316	0.0129	0.012				NC1=N[C@@](c2cc(NC(=O)c3ccc(Cl)cn3)ccc2F)(C2CC2)[C@H](C(F)(F)F)OC1 [Compound 233]
0.0617	0.0562	0.0589				NC1=N[C@@](c2cccc(NC(=O)c3cnc(OCC(F)(F)F)cn3)c2)(C2CC2)[C@@H](F)OC1 [Compound 275]

— patent US9828350B2, “5,6-dihydro-2H-[1,4]oxazin-3-yl-amine derivatives useful as inhibitors of beta-secretase (BACE)” (Janssen Pharmaceutica NV, priority 2010, dated 2017)
